Laboratory results taken from article PMC11172460 (International Journal of Molecular Sciences, 2024).
Read-outs that look alike come from different tables or passages of the source.

What was measured:
differentiated N2a cells [1] = assay: DCFH-DA assay of intracellular ROS production; assay type: cell-based, mouse
Method: (§1) N2a cells were seeded on T75 flasks and grown in Dulbecco’s Modified Eagle Medium (DMEM) containing Glutamax, supplemented with 100 μg/mL streptomycin, 100 IU/mL penicillin, and 10% fetal bovine serum (FBS) in a humidified 5% CO2 atmosphere at 37 °C. After two passages by trypsinization, cells were seeded at a density of 5 × 10^3 cells/well in 12-well plates with 2 mL of DMEM or at a density of 5 × 10^2 cells/well in 96-well plates with 0.2 mL of DMEM, depending on the study (see below). For neural differentiation, N2a cells were allowed to adhere and proliferate in wells for 4 days; then, after washing once with serum-free DMEM, differentiating medium composed of DMEM containing 1% HS and 20 μM all-trans-retinoic acid (atRA) was added in both the seeding conditions, up to 6 days of differentiation, after which the cells were used for the experiments.
The potential antioxidant effect of Fer-Ger was evaluated according to the original method of Wang and Joseph. In this method, the nonpolar 2′,7′-dichlorofluorescin diacetate (DCFH-DA) enters the intact cells and is hydrolyzed by intracellular esterases to nonfluorescent DCFH carboxylate anion, which remains entrapped and becomes the high fluorescent dichlorofluorescin (DCF) after oxidation by free radicals generated by a stressor, such as H2O2. Therefore, H2O2-induced intracellular ROS production was measured in N2a cells by a florescence intensity assay following exposure to the oxidation-sensitive dye DCFH-DA. N2a cells were seeded at a density of 1 × 10^4 cells/well in a black-coated and clear bottom 96-well plate and neuron-differentiated as reported above. After 6 days, differentiating medium in N2a cells was replaced with pre-warmed phenol-red-free and serum-free DMEM containing 10 µM DCFH-DA and incubated for 30 min in the dark in a humidified 5% CO2 atmosphere at 37 °C. The 10 µM DCFH-DA loading solution was then removed, and the cells were washed twice with fresh phenol-red-free and serum-free DMEM to remove the redundant extracellular DCFH-DA probe. Subsequently, N2a cells were incubated with pre-warmed phenol-red free DMEM containing 1% FBS as an untreated control and with solutions dissolved in phenol-red free DMEM containing 1% FBS of Fer-Ger (1, 5, or 10 µM) or 100 µM ascorbic acid (AA, as an established antioxidant positive control) and incubated for 1 h in a humidified 5% CO2 atmosphere at 37 °C. After this time, 100 µM H2O2 was added in the absence or presence of 1, 5 or 10 µM Fer-Ger or 100 µM AA, and the fluorescence intensity was measured at an excitation wavelength of 485 nm and at an emission wavelength of 530 nm, monitoring the oxidation of DCFH to DCF by the intracellular ROS by running the kinetic over 75 min in a fluorescence microplate reader (VICTOR^3TM 1420 Multilabel counter, PerkinElmer, Milan, Italy). Results were represented as a percentage of intracellular ROS production (100% of control) resulting from the mean values ± SEM of sextuplicate wells over time.

[2] = rat brain homogenates, cited from earlier work; for amount hydrolyzed: within 6 h
[3] = rat liver homogenates, cited from earlier work
[4] = same tristearin carriers; cited from earlier work
[5] = rodents and humans, ranging from a few minutes to 30 min; cited from earlier work
[6] = parameters: method as in PMID 10669289; details: 1-octanol/water; cited from earlier work
differentiated N2a cells [7] = assay: MTT assay of H2O2-altered viability (neuroprotection); assay type: cell-based, mouse; details: 100 µM H2O2 for 24 h
Method: as §1
The MTT assay was also carried out to determine the neuroprotective effect of Fer-Ger on H2O2-induced cell oxidative stress in N2a neuronal cells. Briefly, N2a cells (5 × 10^2) were seeded and differentiated into 96-well plates, as reported above. Then, cells were incubated with 1 µM and 5 µM Fer-Ger dissolved in DMEM containing 0.5% HS for 1 h in a humidified 5% CO2 atmosphere at 37 °C. The experimental design therefore included cells incubated with only culture medium as a control and cells incubated for 24 h with 100 µM H2O2 as a damage-inducing agent after 1 h of preincubation in the absence or presence of 1 µM or 5 µM Fer-Ger. Then, 20 μL of MTT (5 mg/mL) was added into the 200 µL of the incubation medium. Four hours later, the medium containing MTT was aspirated and replaced by 100 µL of dimethyl sulfoxide (DMSO) solubilization agent for 1 h at 37 °C in an orbital shaker incubator. Finally, the absorbance of each well was measured at 570 nm using a microtiter plate reader (Sunrise® Microplate Reader, Tecan Trading AG, Männedorf, Switzerland).

Structure (SMILES): O=C1O[C@H]([C@@H](O)CO)C(O)=C1O [ascorbic acid]
- effect on basal ROS production (differentiated N2a cells [1]; 100 µM ascorbic acid alone): without by itself modifying basal ROS production
- effect on H2O2-induced ROS production (differentiated N2a cells [1]; 100 µM ascorbic acid with 100 µM H2O2): completely prevented the H2O2-induced ROS production

Structure (SMILES): COc1cc(C=CC(=O)Oc2ccc(C=CC(=O)O)cc2OC)ccc1O [Fer-Fer]
- amount hydrolyzed [2]: about 50%

Structure (SMILES): Cc1cn([C@H]2C[C@H](N=[N+]=[N-])[C@@H](COC(=O)CC[C@@H](C)[C@H]3CC[C@H]4[C@@H]5[C@@H](O)C[C@@H]6C[C@H](O)CC[C@]6(C)[C@H]5CC[C@]34C)O2)c(=O)[nH]c1=O [UDCA-AZT]
- hydrolysis rate ([3]; ref our previous results): the same hydrolysis rate as Fer-Ger
- half-life of hydrolysis [2]: about 7 min
- drug loading [4]: 0.57 % w/w
- encapsulation efficiency (EE) [4]: about 26%

Structure (SMILES): COC(=O)/C=C/c1ccc(OC(=O)/C=C/c2ccc(O)c(OC)c2)c(OC)c1 [Fer-Fer-Me]
- half-life of hydrolysis [2]: about 14 min
- drug loading [4]: 0.49 % w/w
- encapsulation efficiency (EE) [4]: about 19%

Structure (SMILES): COc1cc(/C=C/C(=O)O)ccc1O [Fer, ferulic acid]
- drug loading [4]: 0.38 % w/w
- encapsulation efficiency (EE) [4]: about 14%
- in vivo half-lives [5]: ≤ 30 min

Structure (SMILES): CC(C)=CCC/C(C)=C/CO [Ger, geraniol]
- in vivo half-lives [5]: ≤ 30 min
- Log P [6]: 3.56

Structure (SMILES): CC(C)=CCCC(C)=CCOC(=O)CCC(C)C1CCC2C3C(O)CC4CC(O)CCC4(C)C3CCC12C (stereo not shown) [GER-UDCA]
- half-life of hydrolysis [3]: higher than 30 min
- amount hydrolyzed [2]: about 30%

Structure (SMILES): OO [H2O2, hydrogen peroxide, reference compound]
- reduction of cell viability compared to untreated cells (differentiated N2a cells [7]): 74%
- effect on DCF fluorescence (ROS production) (differentiated N2a cells [1]; 100 µM H2O2, 75 min observation): significantly and time-dependently increased DCF fluorescence

Structure (SMILES): COC(=O)/C=C/c1ccc(O)c(OC)c1 [Fer-Me]
- hydrolysis [2]: total absence of hydrolysis processes
- drug loading [4]: 0.72 % w/w
- encapsulation efficiency (EE) [4]: about 28%
